Where two headings read alike, the source gives them in different places.
Experiments:
[1] = system: yeast-mold isolate (1/3 black fungal isolate, 1/3 gray fungal isolate, 1/3 Yarrowia lipolytica); format: cell-based, yeast-mold isolate from a beverage plant
yeast-mold isolate = assay: Coupon testing for bio-load removal study (five step sanitation program); format: cell-based, yeast-mold isolate from a beverage plant; details: silicon rubber coupon pre-treated with the labelled agent, inoculated, then five step sanitation program (2600 ppm Vortexx, 40° C., 15 minutes)
Experimental: The same yeast-mold isolates as in the antimicrobial treatment method were grown up for inoculation onto the coupons. The coupons were inoculated with the isolates. The coupons were then subjected to the inventive five step method involving an initial rinse step, a detergent wash step, an intermediate rinse step, an antimicrobial treatment step, and a final rinse step. The coupons were first placed in 1000 ml of ambient water for 10 minutes. The coupons were then placed in 1000 ml of a wash solution for 60 minutes. The coupons were then placed in a 2600 ppm solution Vortexx™ at 40° C. for 15 minutes. Finally, the coupons were placed in a jar containing sterile water. The carriers were than placed in 25 ml of 0.5% sodium thiosulfate neutralizing solution to suspend any surviving organisms. The neutralizing solution was then filtered and plated on Sabouraud's Dextrose Agar in order to determine the number of surviving organisms.

[2] = 185 F. water, 15 minute contact, Stainless Steel coupon, no pre-treatment

O [185 F. Water, water]
Percent Reduction ([1]; 185 F. water, 15-minute contact, BUNA N coupon, pH 2.3 phosphoric acid 104 F. 2 weeks): >99.5%
Percent Reduction ([1]; 185 F. water, 15-minute contact, BUNA N coupon, pH 13 caustic 185 F. 2 weeks): >99.8%
Filter Survivors [1, 2]: <1 CFU
Percent Reduction [1, 2]: >99.9%
log reduction ([1]; stainless steel coupon, not preconditioned, Table 2 treatments): 3 log
Percent Reduction (avg of 3) (yeast-mold isolate): 38.3%
log reduction (yeast-mold isolate; listed as 185° F. Water): <1 log
log reduction (yeast-mold isolate; listed as 185° F. water): 1 log
